Assay results taken from patent publication US20100041704A1, “DERMAL COMPOSITIONS OF SUBSTITUTED AMIDES AND THE USE THEREOF AS MEDICATION FOR PAIN AND PRURITUS” (priority 2007, published 2010).
Where a name gives a salt, the structure may show the parent alone. Values belong to the molecule of their own block, whether it stands above or below them.

Assays:
[1] = saturation solubility in topical solvents/penetration enhancers; format: physicochemical
Procedure: Melting point ranges were determined with a capillary apparatus (Stuart) using a heating rate of 1° C./min. Moisture was measured using Karl Fischer titration (Schott TitroLine KF). Solubility was measured by adding an excess of solid to the solvent and allowing this suspension to equilibrate at 19-21° C. for at least 24 hours. […]
Solubility was measured by adding an excess of solid to the solvent and allowing this suspension to equilibrate at 19-21° C. for at least 24 hours. […]

[2] = tested on: New Zealand White rabbits (skin); experiment: dermal irritation studies; format: in vivo, rabbit; conditions: DMSO at lower concentrations (<90%) in combination with bupivacaine or ropivacaine
Procedure: Dermal irritation studies are performed in male and female New Zealand White rabbits (Harlan). This albino rabbit is recommended as the preferred species because of its size, skin permeability and extensive database. The number of animals being used in these studies is consistently increasing as new compositions are tested and previously tested compositions are being retested as references. Within 24 hours before the initiation of the test, fur is removed from the upper and lower dorsal trunks by clipping. Care is taken to avoid abrading the skin and only animals with healthy intact skin are being used. Histamine is used as the pruritic irritant. The compositions to be tested are applied to the skin of the animals for 60 min (±5 min). The new compositions, with or without bupivacaine 5 to 10 percent, are applied on 6-ply gauze pads (4.5 cm×4.5 cm) and held in place with Tegaderm® dressing for the entire exposure duration. After the exposure period, residual test article is removed with water or other appropriate solvent, without altering the existing response or the integrity of the epidermis. Prior to dosing and repeatedly post dosing, dermal irritation is scored for erythema/eschar and edema.

[3] = ternary solvent mixtures with water as anti-solvent; format: physicochemical; conditions: 1 ml polyethylene glycol + 1 ml ethanol, presence of 0.6 ml water
sciatic nerve = sciatic nerve block in the rat, duration by algesimeter; format: in vivo; conditions: for duration of sensory nerve block / local anesthesia: injection of 0.5% solution, N=10-12
[4] = tested on: nerve ligation model in the rat (L5 and L6 spinal roots of the sciatic nerve); experiment: nerve ligation model of neuropathic pain in the rat (tail flick, pinprick allodynia); format: in vivo; conditions: for activity in animal model of neuropathic pain: rat nerve ligation model
[5] = tested on: guinea pigs (dermal anesthesia); experiment: potentiation study: dermal anesthesia in guinea pigs, pinprick methodology; format: in vivo; conditions: guinea pigs N=8
[6] = tested on: human leukocytes (buffy coat); experiment: inhibition of A23187-stimulated histamine release from human leukocytes; format: cell-based; conditions: A23187 5 μM, 20 min/37° C.
Procedure: In the present studies, histamine was the marker compound for algesic mediators that are released into the tissues of patients suffering from neuropathic pain. The inhibition of stimulated histamine release from human leukocytes (buffy coat) by test articles was studied. Leukocytes were obtained from healthy volunteers and histamine release was induced by incubation (20 min/37° C.) with the calcium ionophore A23187 (5 μM) in the presence or absence of a test article. Histamine was analyzed by enzyme-immuno assays, using commercially available kits and a microplate reader (MRX, Dynatech).

[7] = tested on: mice with diet-induced pruritus; experiment: pruritus model: mice fed diet low in Mg2+ and Zn2+, scratching; conditions: mouse, in vivo
[8] = saturation solubility in pentane (model propellant); format: physicochemical; conditions: base
Excerpt: In addition to the solubility experiments shown above, the solubilities of bupivacaine and ropivacaine were also investigated using pentane since this is a low molecular weight hydrocarbon, commonly used to model a GRAS (generally recognized as safe) aerosol propellant such as butane.

[9] = concentrations up to 0.075 percent (Mason L et al. 2004); cited from earlier work
[10] = in ethanol, 19-21° C., at least 24 hours, HPLC
[11] = in hexylene glycol, 19-21° C., at least 24 hours, HPLC
[12] = in isopropyl alcohol, 19-21° C., at least 24 hours, HPLC
[13] = in propylene glycol, 19-21° C., at least 24 hours, HPLC
[14] = in diisopropyl adipate, 19-21° C., at least 24 hours, HPLC
[15] = in isopropyl myristate, 19-21° C., at least 24 hours, HPLC

Compound: CCCCN1CCCCC1C(=O)Nc1c(C)cccc1C.Cl.O (racemic) [Racemic HCl monohydrate]
Solubility of bupivacaine (% w/w) [1, 10]: 4.3 % w/w | Solubility of bupivacaine (% w/w) [1, 11]: 2.1 % w/w | Solubility of bupivacaine (% w/w) [1, 12]: 0.5 % w/w | Solubility of bupivacaine (% w/w) [1, 13]: 3.2 % w/w

Compound: CCCCN1CCCCC1C(=O)Nc1c(C)cccc1C (racemic) [Racemic free base]
Solubility of bupivacaine (% w/w) [1, 14]: 6.2 % w/w | Solubility of bupivacaine (% w/w) [1, 10]: 36.8 % w/w | Solubility of bupivacaine (% w/w) [1, 11]: 17.8 % w/w | Solubility of bupivacaine (% w/w) [1, 12]: 20.5 % w/w | Solubility of bupivacaine (% w/w) [1, 15]: 3.5 % w/w | Solubility of bupivacaine (% w/w) [1, 13]: 4.8 % w/w

Solubility of bupivacaine (% w/w) ([1]; in ethanol, determined gravimetrically): 3.8-4.4^1 % w/w
Compound: CCCCN1CCCC[C@H]1C(=O)Nc1c(C)cccc1C (single isomer, unassigned) [Isomer HCl monohydrate]

Solubility of bupivacaine (% w/w) [1, 14]: 2.7 % w/w | Solubility of bupivacaine (% w/w) [1, 10]: 16.5 % w/w | Solubility of bupivacaine (% w/w) [1, 11]: 8.0 % w/w | Solubility of bupivacaine (% w/w) [1, 12]: 8.9 % w/w | Solubility of bupivacaine (% w/w) [1, 15]: 1.6 % w/w | Solubility of bupivacaine (% w/w) [1, 13]: 2.1 % w/w
Compound: CCCCN1CCCC[C@H]1C(=O)Nc1c(C)cccc1C (single isomer, unassigned) [Isomer free base]

Compound: C[S+](C)[O-] [DMSO, Dimethyl sulfoxide]
dermal irritation of DMSO with local anesthetic [2]: do not cause increased dermal irritation

Solubility, % w/w ([1]; S-ropivacaine free base in diisopropyl adipate, 19-21° C., at least 24 hours): 1.7 % w/w | Solubility, % w/w ([1]; S-ropivacaine free base in ethanol, 19-21° C., at least 24 hours): 10.0 % w/w | Solubility, % w/w ([1]; S-ropivacaine free base in hexylene glycol, 19-21° C., at least 24 hours): 5.1 % w/w | Solubility, % w/w ([1]; S-ropivacaine free base in isopropyl alcohol, 19-21° C., at least 24 hours): 5.2 % w/w | Solubility, % w/w ([1]; S-ropivacaine free base in isopropyl myristate, 19-21° C., at least 24 hours): 0.9 % w/w | Solubility, % w/w ([1]; S-ropivacaine free base in propylene glycol, 19-21° C., at least 24 hours): 1.6 % w/w | solubility compared with bupivacaine free base ([1]; all solvents of Table 6): consistently lower | solubility in ternary solvent mixture with water as anti-solvent [3]: dramatically decreased
Compound: CCCN1CCCC[C@H]1C(=O)Nc1c(C)cccc1C [S-ropivacaine free base]

Compound: CCCCN1CCCCC1C(=O)Nc1c(C)cccc1C (stereo not shown) [bupivacaine HCl]
duration of sensory nerve block (sciatic nerve; injection of 0.25% solution, algesimeter (5 gram), rat): 70 ± 5 min | duration of sensory nerve block / local anesthesia (sciatic nerve; algesimeter (5 gram), rat): 99 ± 7 min

Compound: CCCCN1CCCCC1C(=O)Nc1c(C)cccc1C (stereo not shown) [bupivacaine, RS—N-(2,6-dimethylphenyl)-1-butylpiperidine-2-carboxamide]
duration of analgesic activity compared with lidocaine ([4]; neuropathic pain model, single administration): longer duration than that offered by lidocaine | pain relief after repeated administrations ([4]; repeated administrations): long-lasting (days not hours) pain relief | anti-allodynic effect (paw withdrawal, pinprick) ([4]; single systemic administration (0.5%), algesimeter set at 5 grams): prolonged anti-allodynic effect | analgesia, tail-flick test method ([4]; single systemic administration of bupivacaine (0.5%) three days after nerve ligation, tail flick in warm (140° F.) water): 100% | dose causing motor nerve blocks after injections (sciatic nerve; after injections, doses as low as): ≥ 0.1% | duration of dermal anesthesia ([5]; 5% in DMSO/water in a dermal patch, applied for 60 min, pinprick): 60 ± 5 min | inhibition of stimulated histamine release [6]: significant inhibitory activity | potency on histamine release compared with lidocaine [6]: more potent than lidocaine | antipruritic activity / safety and efficacy in animal model of pruritus [7]: antipruritic activity | Saturation solubility in pentane [8]: >0.1%

Compound: COc1cc(CNC(=O)CCCC/C=C/C(C)C)ccc1O [capsaicin]
dermal anesthesia (in words) ([5]; capsaicin alone, low dose): too low to result in measurable dermal anesthesia | efficacy of dermal capsaicin [9]: only marginally effective

Compound: CCN(CC)CC(=O)Nc1c(C)cccc1C [lidocaine]
activity in animal model of neuropathic pain [4]: had activity | duration of sensory nerve block / local anesthesia (sciatic nerve; algesimeter (5 gram), rat): approximately 40 min

Compound: Cc1cccc(C)c1NC(=O)C1CCCCN1C (stereo not shown) [mepivacaine]
duration of sensory nerve block / local anesthesia (sciatic nerve; algesimeter (5 gram), rat): approximately 40 min

Compound: CCCN1CCCCC1C(=O)Nc1c(C)cccc1C (stereo not shown) [ropivacaine, RS—N-(2,6-dimethylphenyl)-1-propylpiperidine-2-carboxamide]
activity in animal model of neuropathic pain [4]: had activity | antipruritic activity / safety and efficacy in animal model of pruritus [7]: antipruritic activity | Saturation solubility in pentane [8]: >0.1%
